Test results taken from patent publication US12612412B2, “Antiviral heterocyclic compounds” (Enanta Pharmaceuticals, Inc., priority 2021, dated 2026).
Read-outs that look alike come from different tables or passages of the source.

What was measured:
[1] = tested on: genotype A, "Long" strain RSV; test: RSV-A assay (CPE protection in Hep-2 cells, ATPlite readout); type: cell-based, Human respiratory syncytial virus (HRSV); conditions: genotype A “Long” strain RSV, MOI 0.1, CPE protection, read-out: Human RSV-A (“Long”)
Outline: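 Hep-2 cells (8,000/well) were treated with 2-fold serial compound dilutions in duplicate and infected with RSV at MOI 0.1. After 5 days, protection from cytopathic effect was measured as cell viability by ATPlite luminescence, and EC50 values were derived.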

[2] = tested on: recombinant HMPV CAN97-83 containing eGFP (MPV-GFP1); test: HMPV antiviral assay Method-A (MPV-GFP1 eGFP fluorescence in Vero E6 cells); type: cell-based, Human metapneumovirus (HMPV); conditions: read-out: HMPV EC50
Protocol: HMPV antiviral activity was evaluated using a recombinant version of HMPV CAN97-83 engineered to contain the coding sequence for enhanced green fluorescence protein (eGFP) in the 3′ end of the virus genome (MPV-GFP1, ViraTree). Vero E6 cells ([…]) were seeded at a density of 12,000 cells/100 μL/well into 96-well cell plates one day prior to the assay. On the day of screening, the cell culture medium was aspirated from the wells and cells were washed twice with serum-free Eagle's Modified Essential Medium (EMEM, ATCC #) containing 1% penicillin-streptomycin (Invitrogen) (SF-EMEM). Cell washes were performed by dispensing 100 μL SF-EMEM per well and immediately aspirating the wash medium from the well. Following the second wash step, serum-free OptiMEM (Invitrogen, Cat No.) (SF-OptiMEM) containing 0.5 μg/mL TPCK-Trypsin (VENDOR) and 1% penicillin-streptomycin was added to the cells at 50 μL/well. Compounds were added into the 96-well plates using a JANUS automated liquid handling system (VENDOR). Compounds were initially diluted 1:50 into an intermediate 96-well plate containing SF-OptiMEM prior to transfer to the assay plate (25 μL/well). Each of the test compounds were tested in duplicate wells at final concentrations starting from 8 μM or 2 μM using ½ stepwise dilutions for a total of 8 points. Virus infection was performed by preparing a working stock of MPV-GFP1 at a multiplicity of infection (MOI) equal to 0.05/25 μL and aliquoting 25 μL of virus inoculum to the compound and positive control wells. SF-OptiMEM was added (25 μL/well) to the appropriate wells to serve as a virus-free negative control for the assay. The final DMSO concentration of all wells is 0.5%. Plates were incubated at 32° C., 5% CO2 for 5 days.
After 5 days incubation, eGFP fluorescence intensity was measured at (X) […] wavelength using a Spectramax i3× plate reader (VENDOR). Percent viral inhibition was calculated using the following equation: y=[…]
Where XQ is the fluorescence intensity measured in a well containing recombinant MPV-GFP1-infected, compound-treated cells and XP is the average fluorescence intensity measured in the wells containing untreated cells infected with recombinant virus. EC50 values were then calculated by non-linear regression using a four parameter curve logistic equation. The curve fit model employed was XLFit Dose Response One Site Model 200: y=(A+(B/(1+((x/C)^D))))
Where A is the minimum y value, B is the maximum y value, C is the log EC50 value, and D is the slope factor. […] EC50 ranges are as follows: A<0.5 μM; B>0.5 μM.

[3] = human respiratory syncytial virus
[4] = human metapneumovirus, Vero C1008, 120 h

Row | Compound | EC50 [1, 3] | EC50 [2, 4] | EC50 [1] | EC50 ([2]; Method-A, MPV-GFP1 in Vero E6 cells, eGFP fluorescence after 5 days)
1 | Cc1nc2c(OC(F)(F)F)cc(C(=O)NC[C@](O)(c3cc4c(c(-c5ccc(F)cc5)n3)OC[C@]4(C)C(N)=O)C(F)(F)F)cc2s1 [Example 97] | < 200 nM | > 500 nM | – | –
2 | Cc1n[nH]c2ccc(C(=O)NC[C@](O)(c3cc4c(c(-c5ccc(F)cc5)n3)OC[C@]4(C)C(N)=O)C(F)(F)F)cc12 [Example 100] | < 200 nM | > 500 nM | – | –
3 | CCc1cc(C(=O)NC[C@](O)(c2cc3c(c(-c4ccc(F)cc4)n2)OC[C@]3(C)C(N)=O)C(F)(F)F)cc2cn[nH]c12 [Example 102] | < 200 nM | < 500 nM | – | –
4 | C[C@]1(C(N)=O)COc2c1cc([C@@](O)(CNC(=O)c1cc(Cl)c3[nH]ncc3c1)C(F)(F)F)nc2-c1ccc(F)cc1 [Example 103] | < 200 nM | < 500 nM | – | –
5 | C[C@]1(C(N)=O)COc2c1cc([C@@](O)(CNC(=O)c1cc(C(F)(F)F)c3[nH]ncc3c1)C(F)(F)F)nc2-c1ccc(F)cc1 [Example 105] | < 200 nM | > 500 nM | – | –
6 | COc1cc(C(=O)NC[C@](O)(c2cc3c(c(-c4ccc(F)cc4)n2)OC[C@]3(C)C(N)=O)C(F)(F)F)cc2cn[nH]c12 [Example 108] | < 200 nM | > 500 nM | – | –
7 | COc1ccc(C(=O)NC[C@](O)(c2cc3c(c(-c4ccc(F)cc4)n2)OC[C@]3(C)C(N)=O)C(F)(F)F)cc1Nc1nccnn1 [Example 112] | < 200 nM | > 500 nM | – | –
8 | Cc1cnc2c(Nc3ccc(C)nn3)cc(C(=O)NC[C@](O)(c3cc4c(c(-c5ccc(F)cc5)n3)OC[C@]4(C)C(N)=O)C(F)(F)F)cc2c1 [Example 113] | < 200 nM | < 500 nM | – | –
9 | Cc1cnc2c(Nc3ccc(C4CC4)nn3)cc(C(=O)NC[C@](O)(c3cc4c(c(-c5ccc(F)cc5)n3)OC[C@]4(C)C(N)=O)C(F)(F)F)cc2c1 [Example 114] | < 200 nM | < 500 nM | – | –
10 | Cc1cnc2c(Nc3ccc(O)nn3)cc(C(=O)NC[C@](O)(c3cc4c(c(-c5ccc(F)cc5)n3)OC[C@]4(C)C(N)=O)C(F)(F)F)cc2c1 [Example 120] | < 200 nM | > 500 nM | – | –
11 | COc1ccc(Nc2cc(C(=O)NC[C@](O)(c3cc4c(c(-c5ccc(F)cc5)n3)OC[C@]4(C)C(N)=O)C(F)(F)F)cc3cc(C)cnc23)nn1 [Example 121] | < 200 nM | < 500 nM | – | –
12 | [2H]C([2H])([2H])c1cc(C(=O)NC[C@](O)(c2cc3c(c(-c4ccc(F)cc4)n2)OC[C@]3(C)C(N)=O)C(F)(F)F)cc2cn[nH]c12 [Example 128] | < 200 nM | < 500 nM | – | –
13 | C[C@]1(C(N)=O)COc2c1cc([C@@](O)(CNC(=O)c1ccc3[nH]c(=O)sc3c1)C(F)(F)F)nc2-c1ccc(F)cc1 [Example 129] | < 200 nM | > 500 nM | – | –
14 | COc1cc(C(=O)NC[C@](O)(c2cc3c(c(-c4ccc(F)cc4)n2)OC[C@]3(C)C(N)=O)C(F)(F)F)ccc1OC[C@H](O)C(F)(F)F [Example 132] | < 200 nM | > 500 nM | – | –
15 | COc1cc(C(=O)NC[C@](O)(c2cc3c(c(-c4ccc(F)cc4)n2)OC[C@]3(C)C(N)=O)C(F)(F)F)ccc1OCC1(O)CC1 [Example 134] | < 200 nM | > 500 nM | – | –
16 | C[C@]1(C(N)=O)COc2c1cc([C@@](O)(CNC(=O)c1ccc(OC[C@H](O)C(F)(F)F)c(OC3CC3)c1)C(F)(F)F)nc2-c1ccc(F)cc1 [Example 135] | < 200 nM | > 500 nM | – | –
17 | COc1cc(C(=O)NC[C@](O)(c2cc3c(c(-c4ccc(F)cc4)n2)OC[C@]3(C)C(N)=O)C(F)(F)F)ccc1OC[C@H](O)C(F)F [Example 136] | < 200 nM | > 500 nM | – | –
18 | COc1cc(C(=O)NC[C@](O)(c2cc3c(c(-c4ccc(F)cc4)n2)OC[C@]3(C)C(N)=O)C(F)(F)F)ccc1OC[C@@H](C)O [Example 138] | < 200 nM | > 500 nM | – | –
19 | CCNc1nc2ccc(C(=O)NC[C@](O)(c3cc4c(c(-c5ccc(F)cc5)n3)OC[C@]4(C)C(N)=O)C(F)(F)F)cc2s1 [Example 139] | < 200 nM | > 500 nM | – | –

Row | Compound | EC50 [1, 3] | EC50 [2, 4] | EC50 [1] | EC50 ([2]; Method-A, MPV-GFP1 in Vero E6 cells, eGFP fluorescence after 5 days)
20 | C[C@]1(C(N)=O)COc2c1cc([C@@](O)(CNC(=O)c1ccc3nc(C(F)F)sc3c1)C(F)(F)F)nc2-c1ccc(F)cc1 [Example 141] | < 200 nM | > 500 nM | – | –
21 | C[C@]1(C(N)=O)COc2c1cc([C@@](O)(CNC(=O)c1ccc3nc(CF)sc3c1)C(F)(F)F)nc2-c1ccc(F)cc1 [Example 142] | < 200 nM | > 500 nM | – | –
22 | [2H]C([2H])([2H])c1cc2cc(C(=O)NC[C@](O)(c3cc4c(c(-c5ccc(F)cc5)n3)OC[C@]4(C)C(N)=O)C(F)(F)F)cc(OC)c2nc1C [Example 143] | < 200 nM | < 500 nM | – | –
23 | COc1cc(C(=O)NC[C@](O)(c2cc3c(c(-c4ccc(F)cc4)n2)OC[C@]3(C)C(N)=O)C(F)(F)F)cc2cc(CF)c(C)nc12 [Example 147] | < 200 nM | < 500 nM | – | –
24 | COc1cc(C(=O)NC[C@](O)(c2cc3c(c(-c4ccc(F)cc4)n2)OC[C@]3(C)C(N)=O)C(F)(F)F)cc2cc(C(F)F)c(C)nc12 [Example 148] | < 200 nM | < 500 nM | – | –
25 | COc1cc(C(=O)NC[C@](O)(c2cc3c(c(-c4ccc(F)cc4)n2)OC[C@]3(C)C(N)=O)C(F)(F)F)ccc1OC[C@@H](C)OP(=O)(O)O [Example 149] | < 200 nM | > 500 nM | – | –
26 | C[C@]1(C(N)=O)COc2c1cc([C@@](O)(CNC(=O)c1ccc3nc(NC(=O)CN)sc3c1)C(F)(F)F)nc2-c1ccc(F)cc1 [Example 152] | < 200 nM | > 500 nM | – | –
27 | C[C@H](N)C(=O)Nc1nc2ccc(C(=O)NC[C@](O)(c3cc4c(c(-c5ccc(F)cc5)n3)OC[C@]4(C)C(N)=O)C(F)(F)F)cc2s1 [Example 153] | < 200 nM | > 500 nM | – | –
28 | C[C@@H](N)C(=O)Nc1nc2ccc(C(=O)NC[C@](O)(c3cc4c(c(-c5ccc(F)cc5)n3)OC[C@]4(C)C(N)=O)C(F)(F)F)cc2s1 [Example 154] | < 200 nM | > 500 nM | – | –
29 | CC(C)[C@H](N)C(=O)Nc1nc2ccc(C(=O)NC[C@](O)(c3cc4c(c(-c5ccc(F)cc5)n3)OC[C@]4(C)C(N)=O)C(F)(F)F)cc2s1 [Example 155] | < 200 nM | > 500 nM | – | –
30 | CC(C)[C@@H](N)C(=O)Nc1nc2ccc(C(=O)NC[C@](O)(c3cc4c(c(-c5ccc(F)cc5)n3)OC[C@]4(C)C(N)=O)C(F)(F)F)cc2s1 [Example 156] | < 200 nM | > 500 nM | – | –
31 | C[C@@H](N)C(=O)Nc1nc2ccc(C(=O)NC[C@](O)(c3cc4c(c(-c5ccc(F)cc5)n3)OC[C@]4(C)C(N)=O)C(F)(F)F)cc2s1 [Example 158] | – | – | < 200 nM | > 500 nM
32 | C[C@]1(C(N)=O)COc2c1cc([C@@](O)(CNC(=O)c1ccc3nc(NC(=O)[C@@H]4CCCN4)sc3c1)C(F)(F)F)nc2-c1ccc(F)cc1 [Example 160] | < 200 nM | > 500 nM | – | –
33 | C[C@]1(C(N)=O)COc2c1cc([C@@](O)(CNC(=O)c1ccc3nc(CO)sc3c1)C(F)(F)F)nc2-c1ccc(F)cc1 [Example 161] | < 200 nM | > 500 nM | – | –
34 | C[C@]1(C(N)=O)COc2c1cc([C@@](O)(CNC(=O)c1ccc3nc(NCCN)sc3c1)C(F)(F)F)nc2-c1ccc(F)cc1 [Example 165] | < 200 nM | > 500 nM | – | –
35 | COc1cc(C(=O)NC[C@](O)(c2cc3c(c(-c4ccc(F)cc4)n2)OC[C@]3(C)C(N)=O)C(F)(F)F)cc2cc(C3CC3)c(CO)nc12 [Example 166] | < 200 nM | > 500 nM | – | –
36 | COc1cc(C(=O)NC[C@](O)(c2cc3c(c(-c4ccc(F)cc4)n2)OC[C@]3(CO)C(N)=O)C(F)(F)F)cc2cc(C)c(C)nc12 [Example 167] | < 200 nM | > 500 nM | – | –
37 | CCn1cc2cc(C(=O)NC[C@](O)(c3cc4c(c(-c5ccc(F)cc5)n3)OC[C@]4(C)C(N)=O)C(F)(F)F)ccc2n1 [Example 168] | < 200 nM | < 500 nM | – | –
38 | CC(C)n1cc2cc(C(=O)NC[C@](O)(c3cc4c(c(-c5ccc(F)cc5)n3)OC[C@]4(C)C(N)=O)C(F)(F)F)ccc2n1 [Example 169] | < 200 nM | > 500 nM | – | –
